Laboratory results published in patent US20250154154A1 (Relay Binney Street, 2nd Floor, priority 2020, published 2025).

Legend:
RBE cells = experiment: Cell Viability Protocol (CellTiterGlo), RBE cells; assay type: cell-based; conditions: RBE or SNU-1079 cells, 72 or 120 hour, cell line and time not given
Method in brief: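 After 72 h or 120 h compound exposure at 37° C, viability was read by CellTiterGlo as % of DMSO vehicle, with IC50 fitted by a 4-parameter curve. Cells had been seeded at 1200/well in 10% FBS RPMI 1640 and allowed 24 h before dosing.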

SRC = SRC (Homo sapiens, UniProt P12931); experiment: SRC Biochemical Assay Protocol (microfluidic mobility shift assay, FLPeptide4 substrate)
Method in brief: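 Mobility-shift readout of phosphorylated FLPeptide4 (1.5 μM) after 90 min kinase reaction with 50 μM ATP and 0.26 nM SRC in pH 7.4 HEPES buffer. Compounds, tested 0.0017–100 μM, were preincubated 30 min with enzyme and peptide; IC50 from 4-parameter logistic fit versus neutral controls.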

[1] = tested on: phospho-S6RP (Ser 235/236) in RBE cells; experiment: Cellular Proliferation Protocol (cellular phospho-S6RP HTRF), RBE cells; assay type: cell-based; conditions: 6 hours treatment, RBE or SNU-1079 cells, cell line not given
Method in brief: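 Phospho-S6RP (Ser 235/236) was quantified by HTRF in lysed RBE cells (2000/well) after a 6 h treatment at 37° C, with overnight antibody incubation at room temperature. IC50 values came from 4-parameter dose-response fits relative to DMSO vehicle.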

SRC, sequence (P12931 whole entry, species assumed): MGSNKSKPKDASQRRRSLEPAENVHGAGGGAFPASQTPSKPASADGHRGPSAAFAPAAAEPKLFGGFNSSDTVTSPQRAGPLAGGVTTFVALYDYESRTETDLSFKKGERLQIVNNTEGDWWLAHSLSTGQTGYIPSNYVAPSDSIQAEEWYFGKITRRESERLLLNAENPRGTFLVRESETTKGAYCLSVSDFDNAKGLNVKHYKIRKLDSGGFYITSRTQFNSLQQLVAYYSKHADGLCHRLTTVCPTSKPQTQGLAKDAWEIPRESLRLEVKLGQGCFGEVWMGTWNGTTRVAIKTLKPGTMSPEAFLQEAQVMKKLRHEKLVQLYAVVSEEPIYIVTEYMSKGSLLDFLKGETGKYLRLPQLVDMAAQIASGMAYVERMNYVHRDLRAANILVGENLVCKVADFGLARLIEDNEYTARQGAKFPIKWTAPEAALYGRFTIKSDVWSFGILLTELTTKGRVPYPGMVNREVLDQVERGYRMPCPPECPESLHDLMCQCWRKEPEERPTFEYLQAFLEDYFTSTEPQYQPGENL

Compound	IC50 (SRC) [µM]	IC50 (RBE cells) [µM]	IC50 [1] [µM]	IC50 ([1]; 6 h) [µM]
C=CC(=O)N1CC[C@@H](N2CC(C#Cc3c(-c4ccc(OC(C)C)c(OC)c4)c4c(N)ncnc4n3C)C2)[C@@H](O)C1 [II-71]	0.01 to 1	0.01 to 1	0.01 to 1	
C=CC(=O)N1CC[C@@H](N2CC(C#Cc3c(-c4ccc(Cl)c(CF)c4)c4c(N)ncnc4n3C)C2)[C@@H](O)C1 [II-58]	0.01 to 1	0.01 to 1	0.01 to 1	
C=CC(=O)N1CC[C@@H](N2CC(C#Cc3c(-c4ccc(OC5CC5)c(OC)c4)c4c(N)ncnc4n3C)C2)[C@@H](O)C1 [II-68]	1 to 10	1 to 10	0.01 to 1	

Continued, in another order:

IC50 (SRC) [µM]	Compound	IC50 (RBE cells) [µM]	IC50 [1] [µM]	IC50 ([1]; 6 h) [µM]
0.01 to 1	COc1cc(-c2c(C#C[C@@H]3[C@H]4CN(C(=O)/C=C/CN(C)C)C[C@@H]34)n(C)c3ncnc(N)c23)ccc1Oc1cccc(C)n1 [II-239, (E)-1-((1R,5S,6s)-6-((4-amino-5-(3-methoxy-4-((6-methylpyridin-2-yl)oxy)phenyl)-7-methyl-7H-pyrrolo[2,3-d]pyrimidin-6-yl)ethynyl)-3-azabicyclo[3.1.0]hexan-3-yl)-4-(dimethylamino) but-2-en-1-one]	0.01 to 1		0.01 to 1
0.01 to 1	C=CC(=O)N1CCC(N2CC(C#Cc3c(-c4ccc(Cl)c(OC)c4)c4c(N)ncnc4n3CCOC)C2)CC1 [II-87]	0.01 to 1	0.01 to 1	
0.01 to 1	C=CC(=O)N1CCC(N2CC(F)(C#Cc3c(-c4ccc(Oc5cccc(C)n5)c(OC)c4)c4c(N)ncnc4n3C)C2)CC1 [II-243]	0.01 to 1		0.01 to 1
